{
  "source": "patent US12416009B2",
  "about": "“Methods and compositions for the modification of plants” (Flagship Pioneering Innovations VI, LLC, priority 2018, dated 2025)",
  "key": {"[1]": {"test_system": "Arabidopsis thaliana seedlings", "test": "Cytotoxicity of free DOX and DOX-loaded PMPs in Arabidopsis thaliana seedlings", "format": "in vivo, Arabidopsis thaliana Col-0", "settings": "100 μM DOX dose; 24 hours exposure, then 3 days; 7-day old seedlings", "method": "Grapefruit PMPs were produced and loaded with doxorubicin as described in Examples 16a and 16b. Wild type Arabidopsis thaliana Col-0 seeds were obtained from the ABRC, surface sterilized with 50% bleach, stratified for 1-3 d at 4° C., and germinated on half-strength (0.5×) Murashige and Skoog (MS) medium supplemented with 0.5% sucrose, 2.5 mM MES, pH 5.6, containing 0.8% agar, with a photoperiod of 16 h light 23° C./8 h dark 21° C.\nTo test whether PMPs can deliver a small molecule cargo in planta, 7-day old Arabidopsis thaliana seedlings were transferred to 0.5× liquid MS medium in a 24 well plate (1 seedling per well), and treated with free DOX or DOX-loaded PMPs with an encapsulated DOX dose of 0 (negative control), 25 μM, 50 μM and 100 μM. The plate was covered with aluminum foil and incubated for 24 hours. DOX-containing medium was removed, the seedlings were washed two times with ½×MS medium, and fresh medium was added. Seedlings were incubated for an additional 3 days under a normal photoperiod (16 h light 23° C./8 h dark 21° C.). Next, seedlings were removed from the plate and towel-dried for imaging and cytotoxicity was assessed by analyzing leaf vigor, leaf color and root length. Cytotoxicity is defined by shortening of the roots, loss of leaf vigor, and leaf discoloration (yellow instead of green) when compared to an untreated seedling control."}, "plants": {"test_system": "plants", "settings": "Culiarez-Mac et al, Plant Growth Regulation 1987; cited from earlier work"}, "Glycine max cell line": {"test_system": "Glycine max cell line", "test": "Uptake of AF488-labeled lemon PMPs by plant cells (epifluorescence microscopy)", "format": "cell-based", "settings": "1×10^12 AF488-PMPs/mL, 2 hours at 24° C.", "method": "(§1) Plant cell lines were purchased from the Deutsche Sammlung von Mikroorganismen und Zellkulturen (DSMZ) (Glycine max, #PC-1026; Triticum aestivum, #PC-998) and ABRC (Zea mays, Black Mexican sweet (BMS), and were grown in baffled vented 250 mL flasks in the dark, at 24° C. with agitation (110 rpm). Glycine max and Triticum aestivum were grown in 3.2 g/L Gamborg's B-5 Basal Medium with Minimal Organics supplemented (G5893, Millipore Sigma) pH 5.5, supplemented with 2% sucrose, and 2 mg/L 2,4-dichlorophenoxyacetic acid (2,4D) (D7299, Millipore Sigma) according to the supplier's instructions. BMS cells were grown in Murashige and Skoog basal medium pH 5.8, containing 4.3 g/L Murashige and Skoog Basal Salt Mixture (Sigma M5524), 2% sucrose (S0389, Millipore Sigma), 1×MS vitamin solution (M3900, Millipore Sigma), 2 mg/L 2,4-dichlorophenoxyacetic acid (D7299, Millipore Sigma) and 250 ug/L thiamine HCL (V-014, Millipore Sigma).\n(§2) For treatment with AF488-PMPs, 5 mL of the cell suspensions was taken to determine the percent Pack Cell Volume (PCV). The PCV is defined as the volume of cells divided by the total volume of the cell culture aliquot, and expressed as a percentage. Cells were centrifuged for 5 min at 3900 rpm, and the volume of the cell pellet was determined. The % PCV for BMS, Glycine max, and Triticum aestivum were 20%, 15%, and 18%, respectively. For the uptake experiment, the % PCV of the cultures was adjusted to 2%, by diluting cells in their appropriate medium. Next, 125 μl of the plant cell suspensions was added to a 24 well plate, and duplicate samples were treated with 125 μl MES buffer (200 mM MES+10 mM NaCl, pH6) alone (negative control), AF488 dye only (dye only control) or a final concentration of 1×10^12 AF488-PMPs/mL diluted in MES buffer to 125 μl. Cells were incubated for 2 hours at 24° C. in the dark, washed three times with 1 mL MES buffer to remove AF488-PMPs or free dye that had not been taken up, and resuspended in 300 μL of MES buffer for imaging on an epifluorescence microscope (EVOS FL Auto 2, Invitrogen)."}, "[2]": {"test_system": "Triticum aestivum cell line", "test": "Uptake of AF488-labeled lemon PMPs by plant cells (epifluorescence microscopy)", "format": "cell-based", "settings": "1×10^12 AF488-PMPs/mL, 2 hours at 24° C.", "method": "as §1, §2"}, "[3]": {"test_system": "Zea mays Black Mexican sweet (BMS) cells", "test": "Uptake of AF488-labeled lemon PMPs by plant cells (epifluorescence microscopy)", "format": "cell-based", "settings": "1×10^12 AF488-PMPs/mL, 2 hours at 24° C.", "method": "as §1, §2"}},
  "data": [
    {"molecule": "COc1cccc2c1C(=O)c1c(O)c3c(c(O)c1C2=O)C[C@@](O)(C(=O)CO)C[C@@H]3O[C@H]1C[C@H](N)[C@H](O)[C@H](C)O1", "note": "[free DOX, doxorubicin]", "values": [
      {"measurement": "cytotoxicity (root shortening, loss of leaf vigor, leaf discoloration)", "setting": "[1]", "result": "root shortening and leaf discoloration"},
      {"measurement": "cytotoxicity in plants", "setting": "plants", "result": "cytotoxic in plants"}
    ]},
    {"molecule": "Alexa Fluor 488® NHS Ester [AF488 dye only]", "values": [
      {"measurement": "AF488 fluorescence signal in cells (PMP uptake)", "setting": "Glycine max cell line", "result": "no detectable fluorescence"},
      {"measurement": "AF488 fluorescence signal in cells (PMP uptake)", "setting": "[2]", "result": "no detectable fluorescence"},
      {"measurement": "AF488 fluorescence signal in cells (PMP uptake)", "setting": "[3]", "result": "no detectable fluorescence"}
    ]}
  ]
}
